The values that follow come from ChEMBL document CHEMBL1201862, “PubChem BioAssay data set” (2004).

Test systems include HCT-15; UACC-257; MDA-MB-231; NCI-H23; OVCAR-3; OVCAR-4; HOP-62; HT-29; RXF 393; MOLT-4; COLO 205; KM12; HCT-116; CAKI-1; SK-MEL-5; MCF7; CCRF-CEM; LOX IMVI; NCI-H522; Malme-3M.
What all share (assay): growth of human tumour cells (NCI), 48 h

Structures can show the parent of a compound that is named as a salt.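 Each compound was tested at five concentrations against cells in 96-well plates for 48 hours. GI50 is the concentration that inhibits growth by half.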 Active and inactive are the calls of the source. Rule as the data show it: active = GI50 up to about 1.1 µM and inactive = higher.

Take `CC1=CSC(O)(c2ccc(Cl)cc2)c2noc(=O)n21` (stereo not given): the GI50 is 72.9 µM in the test with HCT-15; 24.4 µM (inactive) in the test on UACC-257; > 100 µM (inactive) in the test with MDA-MB-231; 48.4 µM (inactive) in the test on NCI-H23; 72.1 µM (inactive) in the test on OVCAR-3; > 100 µM (inactive) in the test on OVCAR-4. Moreover, the GI50 is > 100 µM (inactive) in the test with HOP-62; > 100 µM (inactive) in the test with HT-29; 71.6 µM (inactive) in the test with RXF 393; > 100 µM (inactive) in the test with MOLT-4; > 100 µM (inactive) in the test with COLO 205; > 100 µM (inactive) in the test on KM12. Further, the GI50 with HCT-116 was 53.5 µM (inactive); with CAKI-1, > 100 µM (inactive); with SK-MEL-5, 59.6 µM (inactive); in the test on MCF7 it was 66.4 µM (inactive).

For the compound `COc1cccc(CC(=O)N2CCN(CCCc3ccccc3)CC2)c1`, the GI50 with HCT-15 was 45.9 µM; in the test on UACC-257, 37.3 µM (inactive); in the test with MDA-MB-231, > 100 µM (inactive); with NCI-H23, 36.1 µM (inactive); in the test with CCRF-CEM it was 89.3 µM (inactive); with OVCAR-3, 60.1 µM (inactive). For the same compound, the GI50 with LOX IMVI was > 100 µM (inactive); in the test with OVCAR-4, 34.4 µM (inactive); with HOP-62, > 100 µM (inactive); with HT-29 it was 31.4 µM (inactive); in the test on MOLT-4, 54.7 µM (inactive); in the test on COLO 205 it was 76.7 µM (inactive). The GI50 in the test on KM12 was > 100 µM (inactive); in the test with HCT-116, 65.6 µM (inactive); in the test with CAKI-1, 80.4 µM (inactive); with SK-MEL-5, 23.2 µM (inactive); with MCF7, 60.3 µM (inactive); in the test with NCI-H522 it was 57.9 µM (inactive).

On to `CCOC(=O)C1=C(C)NC(C)=C(C(=O)OCC)C1c1ccc(C)cc1`, for which the GI50 in the test on HCT-15 was 25.8 µM; in the test with UACC-257 it was 44.9 µM (inactive); with MDA-MB-231, 29.4 µM (inactive); in the test on NCI-H23, 34.5 µM (inactive); in the test on CCRF-CEM, 0.0193 µM (active); in the test on OVCAR-3, 21.1 µM (inactive). Besides, the GI50 in the test with LOX IMVI is 31.8 µM (inactive); with OVCAR-4, 54.3 µM (inactive); in the test on HOP-62, 46.5 µM (inactive); in the test with HT-29, 27.8 µM (inactive); with RXF 393 it was 29.1 µM (inactive); with MOLT-4 it was 25.9 µM (inactive). The GI50 in the test with COLO 205 is > 10 µM (inactive); in the test with KM12 it was 46.7 µM (inactive); in the test on HCT-116 it was 36.1 µM (inactive); in the test with CAKI-1, 48.6 µM (inactive); with SK-MEL-5 it was 18.8 µM (inactive); in the test with MCF7, 11.2 µM (inactive). Besides, in the test with NCI-H522, the GI50 was 32.4 µM (inactive).

Consider `CC(=O)OCC1OC(NC(=S)CCSc2nc3ccccc3c(=O)n2-c2ccccc2)C(OC(C)=O)C(OC(C)=O)C1OC(C)=O` (stereo not given), for which the GI50 with HCT-15 was 53.7 µM; in the test with UACC-257 it was 30.4 µM (inactive); with MDA-MB-231 it was > 100 µM (inactive); in the test on NCI-H23 it was 68.1 µM (inactive); with CCRF-CEM it was 27.2 µM (inactive); with OVCAR-3, 40.4 µM (inactive). Also, the GI50 in the test with LOX IMVI was 79.6 µM (inactive); in the test on HOP-62 it was 28.3 µM (inactive); with Malme-3M, > 100 µM (inactive); in the test with HT-29, > 100 µM (inactive); in the test on RXF 393 it was 18 µM (inactive); in the test with MOLT-4 it was 30 µM (inactive). Also, the GI50 in the test with COLO 205 is 40.1 µM (inactive); in the test on KM12, 36.5 µM (inactive); in the test on HCT-116, 73.5 µM (inactive); in the test with CAKI-1 it was > 100 µM (inactive); with SK-MEL-5, 45 µM (inactive); in the test on MCF7, > 100 µM (inactive). Moreover, in the test on NCI-H522, the GI50 is 25.6 µM (inactive).

On to `Cc1ccc(S(=O)(=O)N2CCN(CCO)CCN(S(=O)(=O)c3ccc(C)cc3)CCN(CCO)CC2)cc1`, for which the GI50 in the test on HCT-15 was 18.6 µM; in the test on UACC-257 it was 10.3 µM (inactive); with MDA-MB-231 it was 21.7 µM (inactive); with NCI-H23, 18.2 µM (inactive); in the test with CCRF-CEM, 22.9 µM (inactive); with OVCAR-3, 18.7 µM (inactive). In addition, the GI50 with LOX IMVI is 13.6 µM (inactive); with OVCAR-4 it was 15 µM (inactive); with HOP-62, 27.5 µM (inactive); with HT-29 it was 12.2 µM (inactive); with RXF 393, 13.9 µM (inactive); in the test on MOLT-4 it was 19.7 µM (inactive). Besides, the GI50 is 15.3 µM (inactive) in the test with COLO 205; 20.6 µM (inactive) with KM12; 15 µM (inactive) in the test with HCT-116; 37.8 µM (inactive) in the test on CAKI-1; 13.6 µM (inactive) in the test with SK-MEL-5; 13.4 µM (inactive) with MCF7. Also, in the test on NCI-H522, the GI50 is 18.7 µM (inactive).

On to `Cn1c(=O)oc2cc(C(=O)CN3CCN(Cc4ccc5c(c4)OCO5)CC3)c(Cl)cc21`, for which the GI50 in the test on HCT-15 is above 100 µM; in the test on MDA-MB-231, > 100 µM (inactive); in the test with NCI-H23, > 100 µM (inactive); in the test with CCRF-CEM it was > 100 µM (inactive); in the test with LOX IMVI, 80.4 µM (inactive); in the test with HOP-62, > 100 µM (inactive). For the same compound, the GI50 in the test on Malme-3M, with RXF 393, with MOLT-4, in the test on COLO 205, in the test with HCT-116 and in the test with CAKI-1 was > 100 µM (inactive) in each case. Besides, the GI50 in the test on SK-MEL-5 and in the test with MCF7 was > 100 µM (inactive) each time.

In the case of `O=C1OC(c2ccccc2)=N/C1=C\c1cccc(F)c1`, the GI50 is above 100 µM in the test on HCT-15; 32.7 µM (inactive) with UACC-257; > 100 µM (inactive) in the test with MDA-MB-231; > 100 µM (inactive) with NCI-H23; 35.7 µM (inactive) in the test with CCRF-CEM; 37 µM (inactive) in the test on OVCAR-3. Besides, the GI50 in the test on LOX IMVI is 22.2 µM (inactive); with OVCAR-4 it was 31.3 µM (inactive); in the test with HOP-62 it was 38.6 µM (inactive); in the test with HT-29, > 100 µM (inactive); with RXF 393, > 100 µM (inactive); with MOLT-4, 32.3 µM (inactive). The GI50 with COLO 205 is > 100 µM (inactive); with KM12, 33.5 µM (inactive); with HCT-116, > 100 µM (inactive); in the test with CAKI-1, > 100 µM (inactive); in the test on SK-MEL-5, 51.4 µM (inactive); with MCF7, > 100 µM (inactive). Further, the GI50 with NCI-H522 is 16 µM (inactive).

As for `O=C(c1ccco1)N(C(=O)N1CCCCC1)c1ccccc1`, the GI50 in the test on HCT-15 was above 100 µM; with UACC-257, > 100 µM (inactive); in the test with MDA-MB-231, > 100 µM (inactive); in the test on NCI-H23 it was > 100 µM (inactive); in the test on CCRF-CEM, > 100 µM (inactive); in the test with OVCAR-3 it was > 100 µM (inactive). Also, the GI50 in the test on LOX IMVI was > 100 µM (inactive); with Malme-3M, 41.2 µM (inactive); in the test with HT-29 it was > 100 µM (inactive); with RXF 393, 87.9 µM (inactive); in the test with MOLT-4 it was > 100 µM (inactive); in the test with COLO 205 it was > 100 µM (inactive). The GI50 in the test with KM12, with HCT-116, with CAKI-1, in the test on SK-MEL-5 and with MCF7 was > 100 µM (inactive) in each case.

Turning to `CC(C)(C)OC(=O)N1CCCC1=O`, the GI50 with HCT-15 is above 10 µM; in the test on UACC-257, > 10 µM (inactive); with MDA-MB-231 it was > 10 µM (inactive); in the test on NCI-H23, > 10 µM (inactive); in the test with CCRF-CEM, > 10 µM (inactive); in the test on OVCAR-3, > 10 µM (inactive). Also, the GI50 with LOX IMVI, in the test with HOP-62, in the test with Malme-3M, in the test with HT-29, in the test on RXF 393 and with MOLT-4 was > 10 µM (inactive) throughout. Moreover, the GI50 with KM12, in the test on HCT-116, with SK-MEL-5 and in the test on MCF7 was > 10 µM (inactive) each time.

As to `COC(=O)[C@@H]1C[C@@H](O)CN1C(=O)c1ccc([N+](=O)[O-])cc1[N+](=O)[O-]`, the GI50 was above 100 µM in the test on HCT-15; > 100 µM (inactive) in the test on UACC-257; > 100 µM (inactive) with MDA-MB-231; > 100 µM (inactive) in the test on NCI-H23; > 100 µM (inactive) in the test with CCRF-CEM; 39.2 µM (inactive) in the test with OVCAR-3. For the same compound, the GI50 is > 100 µM (inactive) in the test on LOX IMVI; > 100 µM (inactive) with OVCAR-4; > 100 µM (inactive) with HOP-62; 51.2 µM (inactive) in the test with HT-29; > 100 µM (inactive) in the test on RXF 393; > 100 µM (inactive) in the test on MOLT-4. Moreover, the GI50 is 50 µM (inactive) in the test with COLO 205; > 100 µM (inactive) in the test with KM12; > 100 µM (inactive) with HCT-116; > 100 µM (inactive) with CAKI-1; 96.6 µM (inactive) in the test with SK-MEL-5; > 100 µM (inactive) in the test on MCF7. Besides, in the test with NCI-H522, the GI50 is > 100 µM (inactive).

Take `CC[C@]12CN3CCc4c([nH]c5ccccc45)[C@@](C(=O)OC)(c4cc5c(cc4OC)N(C)[C@H]4[C@@](O)(C(=O)OC)[C@H](OC(C)=O)[C@]6(CC)C=CCN7CC[C@]54[C@@H]76)CC(C3)[C@H]1O2` (stereo not given in full) [VINLEUROSINE SULFATE]: the GI50 in the test on HCT-15 was 0.449 µM; in the test with UACC-257, 3.24 µM (inactive); with MDA-MB-231 it was 0.291 µM (active); in the test on NCI-H23 it was 0.126 µM (active); in the test on CCRF-CEM, < 0.019 µM (active); with OVCAR-3 it was 0.0104 µM (active). The GI50 in the test with LOX IMVI was < 0.01 µM (active); in the test on OVCAR-4, < 0.01 µM (active); in the test with HOP-62, 0.1 µM (active); with HT-29, < 0.0172 µM (active); in the test with RXF 393 it was 0.158 µM (active); in the test on MOLT-4 it was < 0.0156 µM (active). Moreover, the GI50 in the test with COLO 205 is < 0.01 µM (active); with KM12, < 0.0276 µM (active); in the test on HCT-116, < 0.01 µM (active); with CAKI-1 it was 2.16 µM (inactive); in the test on SK-MEL-5, < 0.01 µM (active); in the test with MCF7, < 0.014 µM (active). Moreover, the GI50 in the test with NCI-H522 was < 0.01 µM (active).
